Values after ≈ are worked out from the molar mass of the structure shown. Like-named read-outs stand apart in the source and are kept apart here.
How the values were obtained:
[1] = tested on: representative fungal and bacterial organisms; assay: Biological screen described in the utility example; type: cell-based; settings: product found to be not completely deblocked
Experimental: A prototypal compound, L-alanyl-2-(5-fluorouracil-2-yl)-L-glycine, was evaluated against representative fungal and bacterial organisms.
(§1) A. Fungi (Disk diffusion method):
(§2) Candida albicans strains B-311 and BC 759, obtained from Smith Kline and French Laboratory Culture Collection were grown in a trypticase soy broth at 28° for 7 hours. The seeded plates, with this medium containing 1.5% agar, were prepared by inoculating 1 ml of the inoculum in 1 l. of yeast-carbon base medium, containing 200 μg/ml of lysine or glutamate as a sole source of nitrogen.
(§3) B. Fungi [Minimum inhibitory […] (MIC)]:
(§4) The minimum inhibitory concentration of the test compound was determined by two-fold broth dilution tests in yeast carbon base medium, containing 200 μg/ml of sodium glutamate. The compounds were diluted from […] to 0.25 μg/ml and the test medium was inoculated with a suspension of C. albicans grown in the same medium for 15 hours at 37°. The final inoculum sizes in the tests we approximately 10^4 cfu/ml and 10^3 cfu/ml. The tubes were incubated at 37° for 24 and 48 hours and observed for inhibition.
C. Bacteria (Disk diffusion method):
A method similar to A above but using E. coli was used which employs a M-9 medium (basic salts with ammonium ion as the nitrogen source and glucose as the carbon source).

[2] = Stability in aqueous phosphate buffer, spontaneous warhead release (Ellman reagent, 412 nm); type: physicochemical; settings: for λ(412) absorbance: before enzyme
Experimental: (§5) The release was maintained at a linear rate over the observation period (5 min). […] This observation is consistent with literature reports of the optimal pH necessary for the efficacy of this enzyme.
(§6) These observations were obtained by colorimetric assay, which involves the reaction between a free sulfhydryl group and 5,5'-dithio-bis(2-nitrobenzoic acid), the Ellman reagent, to produce a yellow color as follows: [drawing 12]
(§7) The peptide from Example 4 was dissolved in 4 mM of phosphate buffer solution (pH 7) containing in Ellman reagent at a level of 4 mg/ml to produce a 1 mM solution of the peptide. The resulting mixture was monitored using a spectrophotometer at a wavelength of 412 nm. To 1 ml of this solution was added 100 μg of hog kidney leucine aminopeptidase (Sigma) and the enzymatic hydrolysis was continuously monitored at 412 nm.
(§8) Reaction mixture contained 1 mM peptide, Ellman's reagent 4 mg/ml, phosphate buffer 4 mM (pH 7).

[3] = tested on: hog kidney leucine aminopeptidase; assay: Enzyme catalyzed warhead release (Ellman reagent, 412 nm); type: biochemical; settings: for λ(412) absorbance: enzyme added
Experimental: as §5, §6, §7, §8

[4] = tested on: hog kidney leucine aminopeptidase; assay: as above; type: biochemical; settings: pH 7.5
Candida albicans = assay: Disk diffusion method, fungi (Method/Test A); type: cell-based; settings: for zone (Test A, disk diffusion; quantity not given): C. albicans B-311; for zone size: C. albicans
Experimental: as §1, §2

C. albicans = assay: Minimum inhibitory concentration, two-fold broth dilution (Method/Test B); type: cell-based, Candida albicans
Experimental: as §3, §4

trypsin = molecular target: T1, trypsin (Bos taurus, UniProt P00760); assay: Detector peptide as enzyme substrate, trypsin; type: biochemical
T1 construct: gene PRSS1
T1 sequence (P00760 24-246): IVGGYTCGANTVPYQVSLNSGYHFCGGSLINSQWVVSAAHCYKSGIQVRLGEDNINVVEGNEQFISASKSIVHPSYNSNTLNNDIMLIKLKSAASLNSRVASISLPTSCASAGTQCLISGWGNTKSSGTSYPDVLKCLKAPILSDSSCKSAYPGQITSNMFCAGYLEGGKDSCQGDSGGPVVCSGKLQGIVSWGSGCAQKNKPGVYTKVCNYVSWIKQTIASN
Source text: (§9) The compounds of formula I or IA in which W is a C1-6 -alkylthio, a functionalized C1-6 -alkylthio for example a C1-6 -aminoalkylthio or a phenylthio as defined above by formula II are of particular utility for detecting protease/peptidase activity in biological systems. For example, the compounds are more sensitive chromogenic detectors of protease activity in biological liquids, such as serum, than is leucine p-nitroanilide. This utility depends on the release, by protease action, of the mercaptan, H-S-R^2, which is assayed quantitatively by colorimetry using Ellman's reagent as described in the examples.

Fasciola hepatica = settings: mice, subcutaneously 15 mg/kg for eight days; compared with albendazole
Nematospiroides dubius = settings: mice, subcutaneously 15 mg/kg for eight days; compared with albendazole
Caenorhabditis elegans = settings: concentrations of 10 and 100 μg/ml
leucine aminopeptidase = leucine aminopeptidase (Sus scrofa, UniProt P28839); assay: Detector peptide as enzyme substrate, leucine aminopeptidase; type: biochemical
Source text: as §9

aminopeptidase M = aminopeptidase M (Homo sapiens, UniProt P15144); assay: Detector peptide as enzyme substrate, aminopeptidase M; type: biochemical
Source text: as §9

E. coli M. 2626 = assay: Disk diffusion method, bacteria (Method C); type: cell-based; settings: Escherichia coli
Source text: C. Bacteria (Disk diffusion method): A method similar to A above but using E. coli was used which employs a M-9 medium (basic salts with ammonium ion as the nitrogen source and glucose as the carbon source).

aminopeptidase M, sequence (P15144 whole entry, species assumed): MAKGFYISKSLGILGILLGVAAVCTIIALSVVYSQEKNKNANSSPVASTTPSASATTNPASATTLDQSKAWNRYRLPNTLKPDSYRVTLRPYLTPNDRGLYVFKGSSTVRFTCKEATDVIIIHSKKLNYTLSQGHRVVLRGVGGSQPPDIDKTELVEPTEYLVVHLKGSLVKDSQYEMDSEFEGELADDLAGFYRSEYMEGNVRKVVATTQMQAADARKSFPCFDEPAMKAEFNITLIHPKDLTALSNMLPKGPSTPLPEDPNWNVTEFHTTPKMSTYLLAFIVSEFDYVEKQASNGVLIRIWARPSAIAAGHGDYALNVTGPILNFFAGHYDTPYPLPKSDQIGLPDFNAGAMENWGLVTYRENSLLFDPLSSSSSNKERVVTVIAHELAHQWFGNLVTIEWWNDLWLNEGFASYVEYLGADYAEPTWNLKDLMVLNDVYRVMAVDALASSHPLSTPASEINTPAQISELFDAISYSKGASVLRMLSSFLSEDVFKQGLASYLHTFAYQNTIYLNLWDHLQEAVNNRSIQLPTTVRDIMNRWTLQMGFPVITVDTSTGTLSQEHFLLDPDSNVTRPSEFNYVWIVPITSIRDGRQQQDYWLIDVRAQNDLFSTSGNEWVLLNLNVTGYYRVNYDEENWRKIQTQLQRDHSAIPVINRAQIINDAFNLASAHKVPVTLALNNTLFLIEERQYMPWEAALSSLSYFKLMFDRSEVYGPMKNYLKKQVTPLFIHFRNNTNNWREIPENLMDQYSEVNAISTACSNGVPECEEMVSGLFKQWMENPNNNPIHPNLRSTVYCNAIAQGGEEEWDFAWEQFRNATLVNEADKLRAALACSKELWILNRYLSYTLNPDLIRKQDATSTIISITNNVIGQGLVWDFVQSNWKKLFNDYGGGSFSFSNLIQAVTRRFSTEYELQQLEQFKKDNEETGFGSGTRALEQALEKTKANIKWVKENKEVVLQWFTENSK
leucine aminopeptidase, sequence (P28839 whole entry): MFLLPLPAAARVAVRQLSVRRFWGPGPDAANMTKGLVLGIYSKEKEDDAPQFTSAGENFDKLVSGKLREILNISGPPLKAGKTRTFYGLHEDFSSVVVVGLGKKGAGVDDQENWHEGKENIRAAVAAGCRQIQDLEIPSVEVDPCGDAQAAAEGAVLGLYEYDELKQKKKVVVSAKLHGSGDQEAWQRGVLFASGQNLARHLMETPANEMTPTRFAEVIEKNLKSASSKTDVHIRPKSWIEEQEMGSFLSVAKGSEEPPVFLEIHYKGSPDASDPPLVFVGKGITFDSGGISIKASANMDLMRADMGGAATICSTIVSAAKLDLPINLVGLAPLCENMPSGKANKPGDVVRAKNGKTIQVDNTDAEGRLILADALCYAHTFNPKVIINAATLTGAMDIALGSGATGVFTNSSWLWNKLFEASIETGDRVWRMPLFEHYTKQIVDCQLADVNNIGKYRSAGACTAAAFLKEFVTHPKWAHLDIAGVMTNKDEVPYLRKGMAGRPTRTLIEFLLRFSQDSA

In the case of `C[C@H](N)C(=O)NC(NNS(=O)(=O)c1cc(C(=O)O)cc(C(=O)O)c1)C(=O)O` (stereo partly drawn) [Example 12, L-alanyl-2-(3,5-dicarboxy-phenylsulfohydrazino)-D,L-glycine], the “activity in the biological screen” value [1] is reported as “not active”.

In the case of “L-alanyl-2-(2,6-dicarboxy-pyridyl-4-)-ethylthio-D,L-glycine [Example 4]”, the “Spontaneous Rate (warhead release)” value ([2]; 1 mM peptide, phosphate buffer 4 mM pH 7, no enzyme) is reported as 65 p moles per min, the “t 1/2 (stability)” value ([2]; 0.2 M phosphate buffer (pH 7.0)) is reported as ~ 5000 min and the “λ(412) absorbance” value ([2]; Time (sec) 0, 1 mM peptide, Ellman's reagent 4 mg/ml, phosphate buffer 4 mM pH 7) is reported as 0.090. For the same molecule, the “λ(412) absorbance” value ([2]; Time (sec) 1, 1 mM peptide, phosphate buffer pH 7) was 0.093, the “λ(412) absorbance” value ([2]; Time (sec) 2, 1 mM peptide, phosphate buffer pH 7) was 0.095 and the non-enzymatic warhead release ([2]; pH 7.5, compared with pH 7.0) was “no noticeable increase”. For the same molecule, the “Rate plus 100 μg enzyme (warhead release)” value ([3]; 1 mM peptide, phosphate buffer 4 mM pH 7, 100 μg leucine aminopeptidase) was 504 p moles per min, the “λ(412) absorbance” value ([3]; Time (sec) 3, 1 mM peptide, phosphate buffer pH 7) was 0.109 and the “λ(412) absorbance” value ([3]; Time (sec) 4) was 0.127. For the same molecule, the “λ(412) absorbance” value ([3]; Time (sec) 5) was 0.142, the “λ(412) absorbance” value ([3]; Time (sec) 6) was 0.161 and the “λ(412) absorbance” value ([3]; Time (sec) 7) was 0.180. For the same molecule, the “λ(412) absorbance” value ([3]; Time (sec) 8) was 0.199, the “warhead release upon addition of Leucine Aminopeptidase” value ([3]; phosphate buffer pH 7.0, observation period 5 min) was “the warhead was released” and the “enzymatically catalyzed release rate relative to pH 7.0” value [4] was “twice the previous rate”.

For `C[C@H](N)C(=O)N[C@H](C(=O)O)n1cc(F)c(=O)[nH]c1=O` [L-alanyl-2-(5-fluorouracil-1-yl)-L-glycine], the zone (Test A, disk diffusion; quantity not given) (Candida albicans; Conc. 1.5 μg/desk) was 16 mm, the zone (Test A, disk diffusion; quantity not given) (Candida albicans; Conc. 3.0 μg/desk) was 20 mm and the zone (Test A, disk diffusion; quantity not given) (Candida albicans; Conc. 6.0 μg/desk) was 22 mm. For the same molecule, the zone (Test A, disk diffusion; quantity not given) (Candida albicans; Conc. 12.5 μg/desk) was 26 mm, the zone (Test A, disk diffusion; quantity not given) (Candida albicans; Conc. 25 μg/desk) was 30 mm and the zone size (Candida albicans; 62 μg/ml) was 16 mm. It also gave a zone size (Candida albicans; 125 μg/ml) of 20 mm, a zone size (Candida albicans; 250 μg/ml) of 22 mm and a zone size (Candida albicans; 500 μg/ml) of 26 mm. For the same molecule, the zone size (Candida albicans; 1000 μg/ml) was 30 mm, the MIC (C. albicans; C. albicans B-310, 24 hours) was 12.5 µg/mL (≈ 45.6 µM) and the MIC (C. albicans; C. albicans strain 3153A) was 12.5 µg/mL (≈ 45.6 µM). For the same molecule, the MIC (C. albicans; C. albicans strain B 311) was 12.5 µg/mL (≈ 45.6 µM) and the MIC (C. albicans; C. albicans strain BC 759) was 1.6 µg/mL (≈ 5.83 µM).

For “N-carbobenzoxy-L-alanyl-D,L-2-(3-aminopropylthio)-glycine, benzyl ester [Example 23]”, the substrate for trypsin (trypsin) was “shown to be substrates”.

`C[C@H](N)C(=O)NC(C(=O)O)n1cc(F)c(=O)[nH]c1=O` (stereo partly drawn) [L-alanyl-2-(5-fluorouracil-1-yl)-D-glycine] showed a zone (Test A, disk diffusion; quantity not given) (Candida albicans; Conc. 1.5 μg/desk, listed as L,D) of 0 mm, a zone (Test A, disk diffusion; quantity not given) (Candida albicans; Conc. 3.0 μg/desk, listed as L,D) of 0 mm and a zone (Test A, disk diffusion; quantity not given) (Candida albicans; Conc. 6.0 μg/desk, listed as L,D) of 0 mm. For the same molecule, the zone (Test A, disk diffusion; quantity not given) (Candida albicans; Conc. 12.5 μg/desk, listed as L,D) was 0 mm, the zone (Test A, disk diffusion; quantity not given) (Candida albicans; Conc. 25 μg/desk, listed as L,D) was 0 mm and the zone size (Candida albicans; 62 μg/ml) was 0 mm. For the same molecule, the zone size (Candida albicans; 125 μg/ml) was 0 mm, the zone size (Candida albicans; 250 μg/ml) was 0 mm and the zone size (Candida albicans; 500 μg/ml) was 0 mm. The zone size (Candida albicans; 1000 μg/ml) was 0 mm, the MIC (C. albicans; C. albicans B-310, 24 hours) was greater than 200 µg/mL and the MIC (C. albicans; C. albicans strain 3153A, listed as L-D) was greater than 100 µg/mL. The MIC (C. albicans; C. albicans strain B 311, listed as L-D) was greater than 100 µg/mL and the MIC (C. albicans; C. albicans strain BC 759, listed as L-D) was greater than 100 µg/mL.

Molecule `C[C@H](N)C(=O)NC(C(=O)O)n1cc(F)c(=O)[nH]c1=O` (mixture of isomers) [Example 2, L-alanyl-2-(5-fluorouracil-1-yl)-D,L-glycine] has a zone (Test A, disk diffusion; quantity not given) (Candida albicans; Conc. 1.5 μg/desk, listed as L-DL) of 12 mm, a zone (Test A, disk diffusion; quantity not given) (Candida albicans; Conc. 3.0 μg/desk, listed as L-DL) of 18 mm and a zone (Test A, disk diffusion; quantity not given) (Candida albicans; Conc. 6.0 μg/desk, listed as L-DL) of 20 mm. It also gave a zone (Test A, disk diffusion; quantity not given) (Candida albicans; Conc. 12.5 μg/desk, listed as L-DL) of 20 mm, a zone (Test A, disk diffusion; quantity not given) (Candida albicans; Conc. 25 μg/desk, listed as L-DL) of 20 mm and an MIC (C. albicans; C. albicans strain 3153A, listed as L-DL) of 25 µg/mL. It also gave an MIC (C. albicans; C. albicans strain B 311, listed as L-DL) of 25 µg/mL and an MIC (C. albicans; C. albicans strain BC 759, listed as L-DL) of 6.3 µg/mL.

In the case of “L-alanyl-2-(albendazole)-D,L-glycine [Example 22]”, the antiparasitic activity (Fasciola hepatica) is reported as “comparable to, or greater than, albendazole”, the antiparasitic activity (Nematospiroides dubius) is reported as “comparable to, or greater than, albendazole” and the nematostatic activity (Caenorhabditis elegans) is reported as “nematostatic activity was demonstrated”.

For `C[C@H](N)C(=O)NC(Sc1ccccc1)C(=O)O` (stereo partly drawn) [L-alanyl-L-(α-phenylthio)glycine], the “use as enzyme substrate” value (leucine aminopeptidase) was “successfully used as enzyme substrates” and the “use as enzyme substrate” value (aminopeptidase M) was “successfully used as enzyme substrates”.

`O=c1[nH]cc(F)c(=O)[nH]1` [Example 5-FU, 5-fluorouracil, reference compound] gave a zone (Test A, disk diffusion; quantity not given) (Candida albicans; Conc. 1.5 μg/desk) of 22 mm, a zone (Test A, disk diffusion; quantity not given) (Candida albicans; Conc. 3.0 μg/desk) of 30 mm and a zone (Test A, disk diffusion; quantity not given) (Candida albicans; Conc. 6.0 μg/desk) of 30 mm. It also gave a zone (Test A, disk diffusion; quantity not given) (Candida albicans; Conc. 12.5 μg/desk) of 40 mm, a zone (Test A, disk diffusion; quantity not given) (Candida albicans; Conc. 25 μg/desk) of 44 mm and an MIC (C. albicans; Candida albicans, C. albicans strain 3153A, read-out: MIC) of 1 µg/mL (≈ 7.69 µM). The MIC (C. albicans; Candida albicans, C. albicans strain B 311, read-out: MIC) was 4 µg/mL (≈ 30.8 µM), the MIC (C. albicans; Candida albicans, C. albicans strain BC 759, read-out: MIC) was 1 µg/mL (≈ 7.69 µM) and the zone of inhibition at 1.5 µg/disc (E. coli M. 2626; conc. 1.5 μg/disk) was 33 mm. For the same molecule, the zone of inhibition at 3 µg/disc (E. coli M. 2626; conc. 3.0 μg/disk) was 38 mm, the zone of inhibition at 6 µg/disc (E. coli M. 2626; conc. 6.0 μg/disk) was 40 mm and the zone of inhibition at 12.5 µg/disc (E. coli M. 2626; conc. 12.5 μg/disk) was 41 mm. The zone of inhibition at 25 µg/disc (E. coli M. 2626; conc. 25.0 μg/disk) was 46 mm.
